Measured values published in patent publication US8591878B2, “Therapeutic compounds” (Merck Sharp & Dohme Corp., priority 2008, dated 2013).
Where two headings read alike, the source gives them in different places.

Test system: subgenomic HCV replicon in Huh-7 cells
Assay: Cell-Based HCV Replication Assay (replicon, NS3 Cell-ELISA)
Set-up: species or system hepatitis C virus (HCV)
Conditions: read-out: Cell based HCV Replication Assay-IC50
Text: Another suitable assay is the cellular Replicon or rheplisa assay described as follows:
Cell-Based HCV Replication Assay
Cell clones that stably maintain subgenomic HCV replicon were obtained by transfecting Huh-7 cells with an RNA replicon identical to I377neo/NS3-3′/wt described by V. Lohmann et al., 285 SCIENCE 110 (Jul. 2, 1999) (EMBL-GENBANK No. AJ242652), followed by selection with neomycin sulfate (G418). Viral replication was monitored by measuring the expression of the NS3 protein by an ELISA assay performed directly on cells grown in 96-well microtiter plates (Cell-ELISA) using the anti-NS3 monoclonal antibody 10E5/24 (as described in International Patent Application Publication WO 02/59321). Cells were seeded into 96 well plates at a density of 10^4 cells per well in a final volume of 0.1 ml of DMEM/10% FCS. Two hours after plating, 50 μl of DMEM/10% FCS containing a 3× concentration of inhibitor were added, cells were incubated for 96 hours and then fixed for 10 minutes with ice-cold isopropanol. Each condition was tested in duplicate and average absorbance values were used for calculations. The cells were washed twice with PBS, blocked with 5% non-fat dry milk in PBS+0.1% TRITON X-100+0.02% SDS (PBSTS) and then incubated o/n at 4° C. with the 10E5/24 mab diluted in Milk/PBSTS. After washing 5 times with PBSTS, the cells were incubated for 3 hours at room temperature with Fe-specific anti-mouse IgG conjugated to alkaline phosphatase (Sigma), diluted in Milk/PBSTS. After washing again as above, the reaction was developed with p-nitrophenyl phosphate disodium substrate (Sigma) and the absorbance at 405/620 nm read at intervals. For calculations, we used data sets where samples incubated without inhibitors had absorbance values comprised between 1 and 1.5. The inhibitor concentration that reduced by 50% the expression of NS3 (IC50) was calculated by fitting the data to the Hill equation, Fraction inhibition=1−(Ai−b)/(A0−b)=[I]^n/([I]+IC50) where: • Ai=absorbance value of HBI10 cells supplemented with the indicated inhibitor concentration. • A0=absorbance value of HBI10 cells incubated without inhibitor. • b=absorbance value of Huh-7 cells plated at the same density in the same microtiter plates and incubated without inhibitor. • n=Hill coefficient.

[1] = Hepatitis C virus, Huh-7 cells with subgenomic HCV replicon, NS3 expression by Cell-ELISA, 96 hours incubation

`C=C[C@@H]1C[C@]1(NC(=O)[C@@H]1C[C@@H]2CN1C(=O)[C@H](C1CCCCC1)NC(=O)N1CCC[C@H](C1)OCCCc1cc3c(cc(OCC)nc3cc1OC)O2)C(=O)NS(=O)(=O)C1CC1` [Example 12, (3R,5S,8S,15R)-8-cyclohexyl-N-((1R,2S)-1-{[(cyclopropylsulfonyl)amino]carbonyl}-2-vinylcyclopropyl)-25-ethoxy-21-methoxy-7,10-dioxo-2,16-dioxa-6,9,11,24-tetraazapentacyclo [18.6.2.1^3,6.1^11,15.0^23,27] triaconta-1(27),20,22,23,25,27-hexaene-5-carboxamide] gave an IC50 (Hepatitis C virus, Huh-7, 96 h) of 4 nM.

For `C=C[C@@H]1C[C@]1(NC(=O)[C@@H]1C[C@@H]2CN1C(=O)[C@H](C1CCCCC1)NC(=O)N1CC[C@@H](C1)OC/C=C/c1cc3c(cc(OCC)nc3cc1OC)O2)C(=O)NS(=O)(=O)C1CC1` [Example 13, (3R,5S,8S,14S,17E)-8-cyclohexyl-N-((1R,2S)-1-{[(cyclopropylsulfonyl)amino]carbonyl}-2-vinylcyclopropyl)-24-ethoxy-20-methoxy-7,10-dioxo-2,15-dioxa-6,9,11,23-tetraazapentacyclo [17.6.2.1^3,6.1^11,14.0^22,26] nonacosa-1(25),17,19,21,23,26-hexaene-5-carboxamide], the IC50 [1] was 9 nM.

`C=C[C@@H]1C[C@]1(NC(=O)C1C[C@@H]2CN1C(=O)[C@H](C1CCCC1)NC(=O)N1CC[C@@H](C1)OCCC/C=C/c1cc3ccc(OC)cc3nc1O2)C(=O)NS(=O)(=O)C1CC1` (stereo partly drawn) [Example 17, (1R,13E,19S,25S,28S)-25-cyclopentyl-N-((1R,2S)-1-{[(cyclopropylsulfonyl)amino]carbonyl}-2-vinylcyclopropyl)-7-methoxy-23,26-dioxo-2,18-dioxa-4,22,24,27-tetraazapentacyclo [25.2.1.1^19,22.0^3,12.0^5,10] hentriaconta-3(12),4,5,7,9,10,13-heptaene-28-carboxamide] gave an IC50 [1] of 4 nM.

`C=C[C@@H]1C[C@]1(NC(=O)[C@@H]1C[C@@H]2CN1C(=O)[C@H](C1CCCC1)NC(=O)N1CC[C@@H](C1)OCCCCCc1cc3ccc(OC)cc3nc1O2)C(=O)NS(=O)(=O)C1CC1` [Example 18, (1R,19S,25S,28S)-25-cyclopentyl-N-((1R,2S)-1-{[(cyclopropylsulfonyl)amino]carbonyl}-2-vinylcyclopropyl)-7-methoxy-23,26-dioxo-2,18-dioxa-4,22,24,27-tetraazapentacyclo [25.2.1.1^19,22.0^3,12.0^5,10] hentriaconta-3(12),4,5,7,9,10-hexaene-28-carboxamide] gave an IC50 [1] of 7 nM.

Compound `CC[C@@H]1C[C@]1(NC(=O)[C@@H]1C[C@@H]2CN1C(=O)[C@H](C1CCCC1)NC(=O)N1CC[C@@H](C1)OCCC/C=C/c1cc3ccc(OC)cc3nc1O2)C(=O)NS(=O)(=O)C1CC1` [Example 19, (1R,13E,19S,25S,28S)-25-cyclopentyl-N-((1R,2R)-1-{[(cyclopropylsulfonyl)amino]carbonyl}-2-ethylcyclopropyl)-7-methoxy-23,26-dioxo-2,18-dioxa-4,22,24,27-tetraazapentacyclo [25.2.1.1^19,22.0^3,12.0^5,10] hentriaconta-3(12),4,5,7,9,10,13-heptaene-28-carboxamide] has an IC50 [1] of 4 nM.

`CC[C@@H]1C[C@]1(NC(=O)[C@@H]1C[C@@H]2CN1C(=O)[C@H](C1CCCC1)NC(=O)N1CC[C@@H](C1)OCCCCCc1cc3ccc(OC)cc3nc1O2)C(=O)NS(=O)(=O)C1CC1` [Example 20, (1R,19S,25S,28S)-25-cyclopentyl-N-((1R,2R)-1-{[(cyclopropylsulfonyl)amino]carbonyl}-2-ethylcyclopropyl)-7-methoxy-23,26-dioxo-2,18-dioxa-4,22,24,27-tetraazapentacyclo [25.2.1.1^19,22.0^3,12.0^5,10] hentriaconta-3(12),4,5,7,9,10-hexaene-28-carboxamide] was tested, and the IC50 (Huh-7 cells with subgenomic HCV replicon, NS3 expression by Cell-ELISA, 96 hours incubation) was 15 nM.

For `C=C[C@@H]1C[C@]1(NC(=O)[C@@H]1C[C@@H]2CN1C(=O)[C@H](C1CCCC1)NC(=O)N1CC[C@H](C1)OCCC/C=C/c1cc3ccc(OC)cc3nc1O2)C(=O)NS(=O)(=O)C1CC1` [Example 21, (1R,13E,19S,25S,28S)-25-cyclopentyl-N-((1R,2R)-1-{[(cyclopropylsulfonyl)amino]carbonyl}-2-vinylcyclopropyl)-7-methoxy-23,26-dioxo-2,18-dioxa-4,22,24,27-tetraazapentacyclo [25.2.1.1^19,22.0^3,12.0^5,10] hentriaconta-3(12),4,5,7,9,10,13-heptaene-28-carboxamide], the IC50 [1] was 20 nM.

In the case of `C=C[C@@H]1C[C@]1(NC(=O)[C@@H]1C[C@@H]2CN1C(=O)[C@H](C1CCCC1)NC(=O)N1CC[C@@H](C1)OC/C=C/c1cc3c(cc(OCC)nc3cc1OC)O2)C(=O)NS(=O)(=O)C1CC1` [Example 22, (3R,5S,8S,14S,17E)-8-cyclopentyl-N-((1R,2S)-1-{[(cyclopropylsulfonyl)amino]carbonyl}-2-vinylcyclopropyl)-24-ethoxy-20-methoxy-7,10-dioxo-2,15-dioxa-6,9,11,23-tetraazapentacyclo [17.6.2.1^3,6.1^11,14.0^22,26] nonacosa-1(25),17,19,21,23,26-hexaene-5-carboxamide], the IC50 [1] is reported as 11 nM.

In the case of `CCOc1cc2c3cc(c(OC)cc3n1)/C=C/CO[C@H]1CCN(C1)C(=O)N[C@@H](C1CCCC1)C(=O)N1C[C@@H](C[C@H]1C(=O)N[C@]1(C(=O)NS(=O)(=O)C3CC3)C[C@H]1CC)O2` [Example 23, (3R,5S,8S,14S,17E)-8-cyclopentyl-N-((1R,2R)-1-{[(cyclopropylsulfonyl)amino]carbonyl}-2-ethylcyclopropyl)-24-ethoxy-20-methoxy-7,10-dioxo-2,15-dioxa-6,9,11,23-tetraazapentacyclo [17.6.2.1^3,6.1^11,14.0^22,26] nonacosa-1(25),17,19,21,23,26-hexaene-5-carboxamide], the IC50 [1] is reported as 7 nM.

For `C=C[C@@H]1C[C@]1(NC(=O)[C@@H]1C[C@@H]2CN1C(=O)[C@H](C1CCCC1)NC(=O)N1CC[C@H](COCCCc3nc4ccc(OC)cc4cc3O2)C1)C(=O)NS(=O)(=O)C1CC1` [Example 25, (1R,18S,24S,27S)-24-cyclopentyl-N-((1R,2R)-1-{[(cyclopropylsulfonyl)amino]carbonyl}-2-vinylcyclopropyl)-7-methoxy-22,25-dioxo-2,16-dioxa-11,21,23,26-tetraazapentacyclo [24.2.1.1^18,21.0^3,12.0^5,10] triaconta-3(12),4,5,7,9,10-hexaene-27-carboxamide], the IC50 [1] was 7 nM.

`C=C[C@@H]1C[C@]1(NC(=O)[C@@H]1C[C@@H]2CN1C(=O)[C@H](C1CCCC1)NC(=O)N1CCC[C@@H]1COCCCc1ccc3nc(OCC)nc(c3c1)O2)C(=O)NS(=O)(=O)C1CC1` [Example 28, (6R,8S,11S,17aR)-11-cyclopentyl-N-((1R,2S)-1-{[(cyclopropylsulfonyl)amino]carbonyl}-2-vinylcyclopropyl)-3-ethoxy-10,13-dioxo-7,8,10,11,12,13,16,17,17a,18, 20,21-dodecahydro-6H,15H-1,22-(ethanediylidene)-6,9-methanopyrimido [4,5-n] pyrrolo[2,1-c][1,13,4,6,9] dioxatriazacyclononadecine-8-carboxamide] showed an IC50 [1] of 6 nM.

With `C=C[C@@H]1C[C@]1(NC(=O)[C@@H]1C[C@@H]2CN1C(=O)[C@H](C1CCCC1)NC(=O)N1CC[C@@H](C1)OC/C=C/Cn1cc(C)c3c4ccccc4nc(c31)O2)C(=O)NS(=O)(=O)C1CC1` [Example 31, (4E,8S,14S,17S,19R)-14-cyclopentyl-N-((1R,2S)-1-{[(cyclopropylsulfonyl)amino]carbonyl}-2-vinylcyclopropyl)-1-methyl-12,15-dioxo-3,6,9,10,12,13,14,15,18,19-decahydro-8H,17H-8,11:16,19-dimethano-7,20-dioxa-2a,11,13,16,21-pentaazabenzo[g] cyclohenicosa[1,2,3-cd]indene-17-carboxamide] the IC50 [1] was 7 nM.

In the case of `C=C[C@@H]1C[C@]1(NC(=O)[C@@H]1C[C@@H]2CN1C(=O)[C@H](C1CCCC1)CNC(=O)N1CC[C@H](COCCCc3nc4ccc(OC)cc4cc3O2)C1)C(=O)NS(=O)(=O)C1CC1` [Example 33, (1R,18S,24S,27S)-24-cyclopentyl-N-((1R,2R)-1-{[(cyclopropylsulfonyl)amino]carbonyl}-2-vinylcyclopropyl)-7-methoxy-22,25-dioxo-2,16-dioxa-11,21,23,26-tetraazapentacyclo [24.2.1.1^18,21.0^3,12.0^5,10] triaconta-3(12),4,5,7,9,10-hexaene-27-carboxamide], the IC50 [1] is reported as over 100 nM.
